# Assay results: patent US9944654B2, “Nargenicin compounds and uses thereof as antibacterial agents” (priority 2014, dated 2018)
# Like-named read-outs stand apart in the source and are kept apart here.
# What was measured:
# [1] = tested on: Staphylococcus aureus MB6266 (MRSA COL); test: Nargenicin antibacterial assay (MIC), S. aureus; assay type: cell-based; conditions: * = some reduction of growth versus control at […]; for MIC: Staphylococcus aureus, MRSA, read-out: S. aureus COL (MIC), MHII broth + 50% human serum
# [2] = tested on: Pseudomonas aeruginosa MB5890 (CB1101, efflux-deleted); test: microbe, parasite or virus in culture; assay type: cell-based; conditions: * = some reduction of growth versus control at […]; for MIC: Pseudomonas aeruginosa, read-out: P. aeruginosa MB5890 efflux-del (MIC), MHII broth
# [3] = molecular target: T1, S. aureus DnaE (DNA polymerase III α-subunit homolog from Staphylococcus aureus) (Staphylococcus aureus, UniProt Q5HF71); test: biochemical; assay type: biochemical
# T1 construct: SaDnaE (S. aureus DnaE residues 1-1065); 6xHis (N); made in house; host or cells: E. coli BL21-AI
# T1 sequence (Q5HF71 1-1065): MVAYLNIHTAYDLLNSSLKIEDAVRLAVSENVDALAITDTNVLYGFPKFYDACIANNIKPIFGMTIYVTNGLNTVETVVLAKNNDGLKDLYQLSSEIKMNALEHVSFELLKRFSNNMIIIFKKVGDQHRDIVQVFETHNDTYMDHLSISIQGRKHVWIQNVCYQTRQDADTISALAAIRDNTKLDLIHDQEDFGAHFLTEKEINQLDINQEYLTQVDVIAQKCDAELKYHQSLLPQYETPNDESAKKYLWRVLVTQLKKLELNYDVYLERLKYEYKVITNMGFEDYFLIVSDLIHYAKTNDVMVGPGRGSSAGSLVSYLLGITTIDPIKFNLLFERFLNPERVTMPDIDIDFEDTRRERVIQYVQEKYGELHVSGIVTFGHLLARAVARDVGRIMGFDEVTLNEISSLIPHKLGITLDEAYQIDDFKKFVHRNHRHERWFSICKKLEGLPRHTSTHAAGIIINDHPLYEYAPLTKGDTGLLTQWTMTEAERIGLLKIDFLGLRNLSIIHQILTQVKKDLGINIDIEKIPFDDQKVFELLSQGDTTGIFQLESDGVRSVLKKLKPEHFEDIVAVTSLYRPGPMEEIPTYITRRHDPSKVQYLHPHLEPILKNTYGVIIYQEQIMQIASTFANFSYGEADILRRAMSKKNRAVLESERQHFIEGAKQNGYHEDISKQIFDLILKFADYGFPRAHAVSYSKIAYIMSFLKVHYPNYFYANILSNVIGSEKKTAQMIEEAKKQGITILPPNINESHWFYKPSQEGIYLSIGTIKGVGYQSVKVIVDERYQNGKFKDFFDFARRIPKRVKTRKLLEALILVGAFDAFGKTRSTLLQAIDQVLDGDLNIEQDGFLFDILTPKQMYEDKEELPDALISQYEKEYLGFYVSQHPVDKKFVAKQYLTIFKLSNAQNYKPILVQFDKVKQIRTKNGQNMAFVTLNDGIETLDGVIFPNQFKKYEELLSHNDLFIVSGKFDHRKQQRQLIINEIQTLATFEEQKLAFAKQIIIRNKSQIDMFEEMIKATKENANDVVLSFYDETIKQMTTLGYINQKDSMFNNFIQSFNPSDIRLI
# Procedure: (§1) Plasmids encoding EcDnaE (E. coli DnaE residues 1-1160) and SaDnaE (S. aureus DnaE residues 1-1065) with 6×His N-terminal tags, were overexpressed in BL21(DE3) and BL21-AI cells (Invitrogen), respectively. Cells were grown in LB media to an OD ˜0.45 pelleted and then resuspended in Minimal Media, as described in Pryor et al. (1997, Protein Expr Purif. 10:309-19), and inducer (0.4 mM IPTG or 0.2% arabinose) for 21 hours at 18° C. at 220 rpm. Cells were then harvested, frozen for 20 minutes at −80° C. and thawed. Pellets were resuspended in 1× Talon buffer (50 mM Sodium Phosphate, 300 mM Sodium Chloride, pH 7.4) +10% glycerol +Roche PI's (-EDTA). Cells were lysed with two passes through a French press, then centrifuged for 45 minutes at 40,000 rpm (70Ti, Beckman). Supernatant was bound to 5 mL TALON resin (CLONTECH) for 1 hour at room temperature on Nutator. TALON resin was washed with 10 mM imidizole, and DnaE was eluted with 250 mM imidizole. Eluate was concentrated and run on a size exclusion column (SEC200, GE Healthcare) in the following buffer; 25 mM HEPES, 30 mM NaCl,1 mM CaCl2, 5% glycerol, pH 7.9. Pool SEC fractions based on SDS-PAGE run, aliquot, freeze, and store at -80° C.
# (§2) DnaE was diluted in 50 mM potassium phosphate pH 7.5, 5 mM BME, 10% glycerol and 200 mM NaCl prior to use.
# (§3) The purpose of the DnaE single enzyme assay is to determine the ability of compounds to inhibit the DNA polymerase III α-subunit homolog from Staphylococcus aureus or the α-subunit from Escherichia coli without the other components of the replication machinery. The DnaE single enzyme assay was a modified version of the method, Standard Pol III Assay Using Activated DNA and Four dNTPs, described by Butler et al., 2008, Methods in Molecular Medicine: New Antibiotic Targets 142:25-36. Briefly, in 96-well plates, enzyme was added to a mixture containing 30 mM Tris-HCl pH 7.5, 20% glycerol, 4 mM DTT, 10 mM Mg acetate, 0.025 mM dATP, 0.025 mM dGTP, 0.025 mM dc:TP, 0.011 mM ^3H-dTTP 1 mCi/ml (Perkin-Elmer), and 0.298 mg/mL Dnase I (Sigma) treated “activated” Calf Thymus DNA (Worthington Biochemical). The assay was set up so that 5 μl of compound was distributed to the plates, 90 μl of reaction mix was added to the compound, and 5 μl of enzyme was added to start the reaction. Assays were initiated by the addition of 0.8 μg/ml E. coli or 0.05 μg/ml S. aureus DnaE, incubated for 30 min at 30° C., and terminated by the addition of a 20% trichloroacetic acid and 0.2% sodium pyrophosphate solution. Precipitated labeled DNA was collected on Glass-fiber Filtermat A using Micro96 Harvester, and the filters were washed, dried, and counted in a Microbeta Trilux (Perkin Elmer). Serial dilutions of compounds (in DMSO) were added to the plates before enzyme addition.
# [4] = tested on: Escherichia coli MB5747 (LS 883, tolC); test: microbe, parasite or virus in culture; assay type: cell-based; conditions: * = some reduction of growth versus control at […]; for MIC: Escherichia coli, read-out: E. coli LS883 tolC (MIC), MHII broth
# [5] = molecular target: T2, E. coli DnaE (DNA polymerase III α-subunit from Escherichia coli) (Escherichia coli, UniProt P10443); test: In vitro DnaE single enzyme assay (E. coli); assay type: biochemical
# T2 construct: EcDnaE (E. coli DnaE residues 1-1160); 6xHis (N); made in house; host or cells: E. coli BL21(DE3)
# Procedure: as §1, §2, §3
# [6] = tested on: Streptococcus pneumoniae MB6357 (CL 2883); test: Nargenicin antibacterial assay (MIC), S. pneumoniae; assay type: cell-based; conditions: * = some reduction of growth versus control at […]; for MIC: Streptococcus pneumoniae, read-out: S. pneumoniae MB2883 (MIC), Isosensitest broth
# [7] = read-out: S. aureus DnaE IC50 (converted)
# [8] = read-out: E. coli DnaE IC50 (converted)
# T2 sequence (P10443 whole entry, the tested form may be a part): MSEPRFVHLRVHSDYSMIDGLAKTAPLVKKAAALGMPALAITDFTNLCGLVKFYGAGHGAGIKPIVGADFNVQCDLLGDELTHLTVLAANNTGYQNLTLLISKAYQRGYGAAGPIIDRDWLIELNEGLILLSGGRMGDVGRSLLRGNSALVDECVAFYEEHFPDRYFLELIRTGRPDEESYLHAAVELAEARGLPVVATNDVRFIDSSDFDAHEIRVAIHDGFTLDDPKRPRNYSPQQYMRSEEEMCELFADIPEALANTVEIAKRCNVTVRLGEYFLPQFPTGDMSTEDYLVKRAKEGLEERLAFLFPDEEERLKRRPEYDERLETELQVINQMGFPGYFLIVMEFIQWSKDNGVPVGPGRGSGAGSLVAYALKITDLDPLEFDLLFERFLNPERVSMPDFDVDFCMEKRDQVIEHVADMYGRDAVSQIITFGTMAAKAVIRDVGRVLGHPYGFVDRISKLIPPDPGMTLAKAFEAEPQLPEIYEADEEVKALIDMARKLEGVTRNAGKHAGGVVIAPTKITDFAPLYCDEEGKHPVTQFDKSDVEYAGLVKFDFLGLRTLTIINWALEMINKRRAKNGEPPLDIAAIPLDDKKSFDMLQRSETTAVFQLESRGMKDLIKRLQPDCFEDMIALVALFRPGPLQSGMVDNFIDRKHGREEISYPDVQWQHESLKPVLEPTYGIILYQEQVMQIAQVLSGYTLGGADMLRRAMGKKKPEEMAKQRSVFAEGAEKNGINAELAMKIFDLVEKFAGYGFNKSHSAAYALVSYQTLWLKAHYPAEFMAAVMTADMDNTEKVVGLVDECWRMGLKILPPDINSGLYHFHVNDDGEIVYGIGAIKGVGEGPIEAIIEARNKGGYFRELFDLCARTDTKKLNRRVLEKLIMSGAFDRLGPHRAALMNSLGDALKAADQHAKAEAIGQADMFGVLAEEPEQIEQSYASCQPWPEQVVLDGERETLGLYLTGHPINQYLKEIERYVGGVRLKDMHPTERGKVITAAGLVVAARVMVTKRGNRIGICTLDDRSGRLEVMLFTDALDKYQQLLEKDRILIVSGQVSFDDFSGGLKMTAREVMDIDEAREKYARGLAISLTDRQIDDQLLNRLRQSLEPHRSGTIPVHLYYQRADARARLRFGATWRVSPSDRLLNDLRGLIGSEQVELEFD
SMILES,MIC [1] [µg/mL],MIC [2] [µg/mL],IC50 ([3]; S. aureus DnaE IC50) [nM],MIC [4] [µg/mL],IC50 ([5]; E. coli DnaE IC50) [µM],MIC [6] [µg/mL],"IC50 [3, 7] [nM]","IC50 [5, 8] [µM]",S. aureus COL (MIC) ([1]; MHII broth + 50% human serum) [µg/mL],P. aeruginosa MB5890 efflux-del (MIC) ([2]; MHII broth) [µg/mL],S. aureus DnaE IC50 [3] [ng/mL],E. coli LS883 tolC (MIC) ([4]; MHII broth) [µg/mL],E. coli DnaE IC50 [5] [µg/mL],S. pneumoniae MB2883 (MIC) ([6]; Isosensitest broth)
CO[C@H]1C[C@H]2C=C[C@@H]3[C@H]4[C@H](O)[C@@H](C)C(n5ccnc5)[C@@H]3O[C@]42/C(C)=C/[C@@H](C)[C@@H]([C@@H](C)O)OC1=O (stereo partly drawn) [Example 149],> 128,128,23300,32,> 212,> 128,–,–,–,–,–,–,–,–
CO[C@H]1C[C@H]2C=C[C@H]3[C@H]4O[C@]2(/C(C)=C/[C@@H](C)[C@@H]([C@@H](C)O)OC1=O)[C@@H]3[C@H](O)C(C)[C@@H]4NCCN.O=C(O)C(F)(F)F (stereo partly drawn) [Example 155],> 128,128,–,> 128,> 173,> 128,2590,–,–,–,–,–,–,–
"CO[C@H]1C[C@H]2[C@@H]3O[C@@H]3[C@H]3[C@H]4O[C@]2(/C(C)=C/[C@@H](C)[C@@H]([C@@H](C)O)OC1=O)[C@@H]3[C@H](O)[C@@H](C)[C@H]4OC(=O)c1ccc[nH]1 [Example 160, (1aS, 1bS,3S,6S,7R,9aS,9bS,10R,11R,12R,13R,13aS,13bR,E)-10-hydroxy-6-((R)-1-hydroxyethyl)-3-methoxy-7,9,11-trimethyl-4-oxo-1 a,lb,2,3,4,6,7,9b,10,11,12,13,13a,13b-tetradecahydro-9a,13-epoxyoxireno[2′,3′:3,4]naphtho[2,1-e]oxecin-12-yl 1H-pyrrole-2-carboxylate]",> 8,> 128,–,> 8,> 188,> 128,4140,–,–,–,–,–,–,–
CO[C@H]1C[C@H]2C=C[C@H]3[C@H]4O[C@]2(/C(C)=C/[C@@H](C)[C@@H]([C@@H](C)OC(=O)OCC(CO)CO)OC1=O)[C@@H]3[C@H](O)[C@@H](C)[C@H]4OC(=O)c1ccc[nH]1 [Example 36],2,64,< 9.26,2,–,> 128,–,17,–,–,–,–,–,–
CO[C@H]1CC2C=C[C@H]3[C@H]4O[C@]2(/C(C)=C/[C@@H](C)[C@@H]([C@@H](C)OC(=O)NCC(N)=O)OC1=O)[C@@H]3[C@H](O)[C@@H](C)[C@H]4OC(=O)c1ccc[nH]1 (stereo partly drawn) [Example 16],32,128,–,4,97.5,> 128,< 9.75,–,–,–,–,–,–,–
CO[C@H]1C[C@H]2C=C[C@H]3[C@H]4O[C@]2(/C(C)=C/[C@@H](C)[C@@H]([C@@H](C)OC(=O)N2CCOCC2)OC1=O)[C@@H]3[C@H](O)[C@@H](C)[C@H]4OC(=O)c1ccc[nH]1 [Example 20],8,> 128,< 9.54,8,–,32,–,> 159,–,–,–,–,–,–
C/C1=C\[C@@H](C)[C@@H](C(C)O)OC(=O)C(O)CC2C=C[C@H]3[C@H]4O[C@@]12[C@@H]3[C@H](O)[C@@H](C)[C@H]4OC(=O)c1ccc[nH]1 (stereo partly drawn) [Example 174],8,> 128,19.9,8,–,> 128,–,21.9,–,–,–,–,–,–
CO[C@H]1C[C@H]2C=CC3C4[C@H](O)[C@@H](C)[C@@H](OC(=O)c5ccc[nH]5)[C@@H]3O[C@]42/C(C)=C/[C@@H](C)[C@@H]([C@@H](C)OC(=O)C(=O)NCc2ccccc2CN(C)C)OC1=O [Example 141],–,–,–,–,–,–,–,–,0.25,4,<6,0.25,1,>128* μg/mL
CO[C@H]1C[C@H]2C=C[C@H]3[C@H]4O[C@]2(/C(C)=C/[C@@H](C)[C@H](c2ccccc2)OC1=O)[C@@H]3[C@H](O)[C@@H](C)[C@H]4OC(=O)c1ccc[nH]1 [Example 52],> 128,> 128,1100,> 128,–,> 128,–,73,–,–,–,–,–,–
CO[C@H]1CC2C=C[C@H]3[C@H]4O[C@]2(/C(C)=C/[C@@H](C)[C@@H](C(C)O)OC1=O)[C@@H]3[C@H](O)[C@@H](C)[C@H]4OC(=O)c1[nH]c(I)c(I)c1I (stereo partly drawn) [Example 42],32,> 128,4480,> 128,–,1,–,44.8,–,–,–,–,–,–
C=C1C[C@@H]2C[C@H](OC)C(=O)O[C@H]([C@@H](C)O)[C@H](C)/C=C(\C)[C@]23O[C@H]2[C@H](OC(=O)c4ccc[nH]4)[C@H](C)[C@@H](O)[C@@H]3[C@@H]12 [Example 200],8,64,11.3,2,–,128,–,> 189,–,–,–,–,–,–
CO[C@H]1C[C@H]2C=C[C@H]3[C@H]4O[C@]2(/C(C)=C/[C@@H](C)[C@@H]([C@@H](C)OC(=O)NC(C)(CO)CO)OC1=O)[C@@H]3[C@H](O)[C@@H](C)[C@H]4OC(=O)c1ccc[nH]1 [Example 21],16,128,< 9.28,8,–,128,–,> 155,–,–,–,–,–,–
